According to US11407736B2 (priority 2019, dated 2022):
Where a name gives a salt, the structure may show the parent alone. Read-outs that look alike come from different tables or passages of the source.

Assays:
[1] = in vivo pharmacokinetics, plasma and brain exposure; conditions: for Kp: rodents
Description: Brain penetration may be assessed by evaluating free brain/plasma ratio (Bu/Pu) as measured in vivo pharmacokinetic studies in rodents.

L929 cells = assay: L929 cell necroptosis assay (TNFa + zVAD, CellTiter-Glo); type: cell-based, murine; conditions: Mus musculus
Procedure, shortened: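 Murine L929 cells, plated 18 h beforehand at 10K cells/well in RPMI 1640 with 10% FBS, were switched to medium containing 40 uM zVAD-fmk and given compound from 4-fold serial dilutions. Viability after 18 h of TNFa stimulation at 37° C was read by CellTiter-Glo luminescence.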

U937 cells = assay: U937 cell necroptosis assay (TNFa + zVAD, CellTiter-Glo); type: cell-based, human; conditions: Homo sapiens
Procedure, shortened: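 Human U937 and murine L929 cells in RPMI 1640/10% FBS were pre-incubated 1 h at 37 °C with serially diluted compound plus zVAD-fmk (U937 plated with 60 uM, L929 medium with 40 uM), then stimulated with 2 ng/mL TNFa (final). Viability read by CellTiter-Glo luminescence after 18 h.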

RIPK1 = RIPK1 (Homo sapiens (Human), UniProt Q13546); assay: RIPK1 ADP-Glo biochemical kinase assay
RIPK1, sequence (Q13546 whole entry, species assumed): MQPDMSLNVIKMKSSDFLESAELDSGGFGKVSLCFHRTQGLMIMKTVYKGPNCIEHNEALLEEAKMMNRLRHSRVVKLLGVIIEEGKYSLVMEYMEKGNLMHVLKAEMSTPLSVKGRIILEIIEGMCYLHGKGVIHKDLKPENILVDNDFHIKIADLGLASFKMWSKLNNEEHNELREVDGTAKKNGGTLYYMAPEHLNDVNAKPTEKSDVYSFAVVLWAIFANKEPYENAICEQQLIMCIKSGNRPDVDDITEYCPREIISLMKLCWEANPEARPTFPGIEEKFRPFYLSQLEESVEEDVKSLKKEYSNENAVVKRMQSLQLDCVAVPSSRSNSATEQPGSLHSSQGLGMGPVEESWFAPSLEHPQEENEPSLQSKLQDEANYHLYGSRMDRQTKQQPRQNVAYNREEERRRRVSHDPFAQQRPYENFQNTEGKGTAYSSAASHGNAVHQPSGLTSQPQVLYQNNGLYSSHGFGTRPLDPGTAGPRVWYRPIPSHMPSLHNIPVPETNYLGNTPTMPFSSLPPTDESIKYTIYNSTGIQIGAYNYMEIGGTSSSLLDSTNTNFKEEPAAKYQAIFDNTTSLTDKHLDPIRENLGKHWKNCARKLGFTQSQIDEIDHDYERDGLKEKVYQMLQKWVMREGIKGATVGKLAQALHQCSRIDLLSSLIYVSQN
Description: The final reaction volume was 5.0ul.
Adding 5 μl of ADP-Glo™ terminated the reaction.

[2] = L929, L929 cells, TNFa + zVAD, read-out: L929-CTG-recovery, L929, TNFa + zVAD (IC50)
[3] = U-937, U937 cells, TNFa + zVAD, read-out: U937 Zvad TNF CTG Recovery, U937, TNFa + zVAD (IC50)
[4] = read-out: RIPK1 ADP-Glo Kinase (IC50)
[5] = L929, read-out: L929-CTG-recovery, L929, TNFa + zVAD (IC50), L929 cells, TNFa + zVAD
[6] = U-937, read-out: U937 Zvad TNF CTG Recovery, U937, TNFa + zVAD (IC50), U937 cells, TNFa + zVAD
[7] = L929 cells, TNFa + zVAD, read-out: L929-CTG-recovery, L929, TNFa + zVAD (IC50)

Row | SMILES | IC50 (L929 cells; [2]) [nM] | IC50 (U937 cells; [3]) [nM] | IC50 (RIPK1; [4]) [nM] | also measured
1 | CN1C(=O)C(NC(=O)n2cc(Cc3ccccc3)cn2)CCc2ccc(N3CC4(CCOCC4)C3)cc21 (racemic) [Compound I-182, (±)-4-Benzyl-N-(1-methyl-2-oxo-8-(7-oxa-2-azaspiro[3.5]nonan-2-yl)-2,3,4,5-tetrahydro-1H-benzo[b]azepin-3-yl)-1-pyrazole-1-carboxamide] |  |  |  | BRAIN AUC0-6 [1]: 157; Kp ([1]; in vivo): 0.56
2 | CN1C(=O)[C@@H](NC(=O)n2cc(Cc3ccc(F)cc3)cn2)COc2ccc(C#CC3(C)COC3)cc21 [Compound I-180, (S)-4-(4-fluorobenzyl)-N-(5-methyl-7-((3-methyloxetan-3-yl)ethynyl)-4-oxo-2,3,4,5-tetrahydrobenzo[b][1,4]oxazepin-3-yl)-1H-pyrazole-1-carboxamide] |  |  |  | BRAIN AUC0-6 [1]: 251; Kp ([1]; brain/plasma): 2.44
3 | CN1C(=O)[C@@H](NC(=O)c2nn(Cc3ccccc3)cc2F)COc2ccc(N3CCC4(CCOCC4)C3)cc21 [Compound I-181, (S)-1-Benzyl-4-fluoro-N-(5-methyl-4-oxo-7-(8-oxa-2-azaspiro[4.5]decan-2-yl)-2,3,4,5-tetrahydrobenzo[b][1,4]oxazepin-3-yl)-1H-pyrazole-3-carboxamide] |  |  |  | BRAIN AUC0-6 [1]: 456; Kp ([1]; in vivo): 0.46
4 | Cc1cccc(C#Cc2ccc3c(c2)N(C)C(=O)[C@@H](NC(=O)n2cc(Cc4ccc(F)cc4)cn2)CO3)n1 [Compound I-183, (S)-4-(4-fluorobenzyl)-N-(5-methyl-7-((6-methylpyridin-2-yl)ethynyl)-4-oxo-2,3,4,5-tetrahydrobenzo[b][1,4]oxazepin-3-yl)-1H-pyrazole-1-carboxamide] |  |  |  | BRAIN AUC0-6 [1]: 326; Kp ([1]; brain/plasma): 0.9
5 | CN1C(=O)[C@@H](NC(=O)n2cc(Cc3ccc(F)cc3F)cn2)COc2ccc(C#CC(C)(C)CNC(=O)OC(C)(C)C)cc21 [Compound I-240, Tert-butyl (S)-(4-(3-(4-(2,4-difluorobenzyl)-1H-pyrazole-1-carboxamido)-5-methyl-4-oxo-2,3,4,5-tetrahydrobenzo[b][1,4]oxazepin-7-yl)-2,2-dimethylbut-3-yn-1-yl)carbamate] | 944 | 15.1 |  | IC50 (RIPK1): 265 nM
6 | CN1C(=O)[C@@H](NC(=O)n2cc(Cc3ccc(F)cc3F)cn2)COc2ccc(C#CC(C)(C)CN)cc21 [Compound I-241, (S)—N-(7-(4-Amino-3,3-dimethylbut-1-yn-1-yl)-5-methyl-4-oxo-2,3,4,5-tetrahydrobenzo[b][1,4]oxazepin-3-yl)-4-(2,4-difluorobenzyl)-1H-pyrazole-1-carboxamide hydrochloride] | 2100 | 62.6 |  | IC50 (RIPK1): 50.1 nM
7 | CN1C(=O)[C@@H](NC(=O)c2cc(Oc3ccccc3)ccn2)COc2cc(C#Cc3ccccn3)ccc21 [II-16, (S)—N-(5-methyl-4-oxo-8-(pyridin-2-ylethynyl)-2,3,4,5-tetrahydrobenzo[b][1,4]oxazepin-3-yl)-4-phenoxypicolinamide] | 2120 | 3.4 | 45.2 | 
8 | CN1C(=O)[C@@H](NC(=O)c2cc(Oc3ccc(C#N)cc3)ccn2)COc2ccc(C#CC(C)(C)O)cc21 [II-18, (S)-4-(4-cyanophenoxy)-N-(7-(3-hydroxy-3-methylbut-1-yn-1-yl)-5-methyl-4-oxo-2,3,4,5-tetrahydrobenzo[b][1,4]oxazepin-3-yl)picolinamide] | 6640 | 286 | 51.8 | 
9 | CN1C(=O)[C@@H](NC(=O)c2cc(Oc3ccc(C#N)cc3)ccn2)COc2ccc(C#CC3(O)COC3)cc21 [II-19, (S)-4-(4-cyanophenoxy)-N-(7-((3-hydroxyoxetan-3-yl)ethynyl)-5-methyl-4-oxo-2,3,4,5-tetrahydrobenzo[b][1,4]oxazepin-3-yl)picolinamide] |  |  | 34.9 | IC50 (L929 cells; [5]): 2890 nM; IC50 (U937 cells; [6]): 55.5 nM
10 | CN1C(=O)[C@@H](NC(=O)c2cc(-c3ccccc3)ccn2)COc2ccc(C#CC(C)(C)O)cc21 [II-20, (S)—N-(7-(3-hydroxy-3-methylbut-1-yn-1-yl)-5-methyl-4-oxo-2,3,4,5-tetrahydrobenzo[b][1,4]oxazepin-3-yl)-4-phenylpicolinamide] |  |  | 40.3 | IC50 (L929 cells; [5]): 14600 nM; IC50 (U937 cells; [6]): 31.6 nM
11 | CN1C(=O)[C@@H](NC(=O)c2cc(Oc3cccc(C#N)c3)ccn2)COc2cc(C#CC(C)(C)O)ccc21 [II-21, (S)-4-(3-cyanophenoxy)-N-(8-(3-hydroxy-3-methylbut-1-yn-1-yl)-5-methyl-4-oxo-2,3,4,5-tetrahydrobenzo[b][1,4]oxazepin-3-yl)picolinamide] | 3440 | 14.3 | 40.9 | 
12 | COc1ccc(-c2ccnc(C(=O)N[C@H]3COc4ccc(C#CC(C)(C)O)cc4N(C)C3=O)c2)cc1 [II-22, (S)—N-(7-(3-hydroxy-3-methylbut-1-yn-1-yl)-5-methyl-4-oxo-2,3,4,5-tetrahydrobenzo[b][1,4]oxazepin-3-yl)-4-(4-methoxyphenyl)picolinamide] |  |  | 310 | IC50 (L929 cells; [5]): 56000 nM; IC50 (U937 cells; [6]): 580 nM
13 | CN1C(=O)[C@@H](NC(=O)c2cc(Oc3ccccc3)ccn2)COc2ccc(CCC(N)=O)cc21 [II-24, (S)—N-(7-(3-amino-3-oxopropyl)-5-methyl-4-oxo-2,3,4,5-tetrahydrobenzo[b][1,4]oxazepin-3-yl)-4-phenoxypicolinamide] |  |  | 56.3 | IC50 (L929 cells; [5]): 7910 nM; IC50 (U937 cells; [6]): 16.6 nM
14 | CN1C(=O)[C@@H](NC(=O)c2cc(Oc3ccccc3)ccn2)COc2ccc(C#CC(C)(C)C)cc21 [II-25, (S)—N-(7-(3,3-dimethylbut-1-yn-1-yl)-5-methyl-4-oxo-2,3,4,5-tetrahydrobenzo[b][1,4]oxazepin-3-yl)-4-phenoxypicolinamide] |  |  | 226 | IC50 (L929 cells; [5]): 202 nM; IC50 (U937 cells; [6]): 2.4 nM
15 | CN1CCC2(CC1)CCN(c1ccc3c(c1)N(C)C(=O)[C@@H](NC(=O)c1cc(Oc4ccccc4)ccn1)CO3)CC2 [II-27, (S)—N-(5-Methyl-7-(9-methyl-3,9-diazaspiro[5.5]undecan-3-yl)-4-oxo-2,3,4,5-tetrahydrobenzo[b][1,4]oxazepin-3-yl)-4-phenoxypicolinamide] |  | 63.3 | 27.9 | IC50 (L929 cells; [7]): 10400 nM
16 | CN1C(=O)[C@@H](NC(=O)c2cc(Oc3ccccc3)ccn2)COc2ccc(N3CC4(CCOCC4)C3)cc21 [II-28, (S)—N-(5-methyl-4-oxo-7-(7-oxa-2-azaspiro[3.5]nonan-2-yl)-2,3,4,5-tetrahydrobenzo[b][1,4]oxazepin-3-yl)-4-phenoxypicolinamide] |  | 8.3 | 16.1 | IC50 (L929 cells; [7]): 2220 nM
17 | CN1C(=O)[C@@H](NC(=O)c2cc(Oc3ccccc3)ccn2)COc2ccc(N3CCC4(CCOCC4)C3)cc21 [II-31, (S)—N-(5-methyl-4-oxo-7-(8-oxa-2-azaspiro[4.5]decan-2-yl)-2,3,4,5-tetrahydrobenzo[b][1,4]oxazepin-3-yl)-4-phenoxypicolinamide] |  | 8 | 36.3 | IC50 (L929 cells; [7]): 654 nM
18 | COC(C)(C)C#Cc1ccc2c(c1)N(C)C(=O)[C@@H](NC(=O)c1cc(Oc3ccccc3)ccn1)CO2 [II-32, (S)—N-(7-(3-methoxy-3-methylbut-1-yn-1-yl)-5-methyl-4-oxo-2,3,4,5-tetrahydrobenzo[b][1,4]oxazepin-3-yl)-4-phenoxypicolinamide] |  |  | 50.5 | IC50 (L929 cells; [5]): 57.4 nM; IC50 (U937 cells; [6]): 2.1 nM
19 | CN1C(=O)[C@@H](NC(=O)c2cc(Oc3ccccc3)ccn2)COc2ccc(C#Cc3cccc(C#N)n3)cc21 [II-33, (S)—N-(7-((6-cyanopyridin-2-yl)ethynyl)-5-methyl-4-oxo-2,3,4,5-tetrahydrobenzo[b][1,4]oxazepin-3-yl)-4-phenoxypicolinamide] | 33.1 | 1.8 | 101 | 
20 | CN1C(=O)[C@@H](NC(=O)c2cc(Oc3ccccc3)ccn2)COc2ccc(C#CCO)cc21 [II-35, (S)—N-(7-(3-hydroxyprop-1-yn-1-yl)-5-methyl-4-oxo-2,3,4,5-tetrahydrobenzo[b][1,4]oxazepin-3-yl)-4-phenoxypicolinamide] | 164 | 0.7 | 27.5 | 
21 | CN(C)CC#Cc1ccc2c(c1)N(C)C(=O)[C@@H](NC(=O)c1cc(Oc3ccccc3)ccn1)CO2 [II-36, (S)—N-(7-(3-(dimethylamino)prop-1-yn-1-yl)-5-methyl-4-oxo-2,3,4,5-tetrahydrobenzo[b][1,4]oxazepin-3-yl)-4-phenoxypicolinamide] | 132 | 1.6 | 38.9 | 
22 | CN1C(=O)[C@@H](NC(=O)c2cc(Oc3ccccc3)ccn2)COc2ccc(C#CC3CCCN3)cc21 (stereo partly drawn) [II-39, N-((3S)-5-methyl-4-oxo-7-(pyrrolidin-2-ylethynyl)-2,3,4,5-tetrahydrobenzo[b][1,4]oxazepin-3-yl)-4-phenoxypicolinamide] | 1350 | 1.8 | 23 | 
